Biological target: PtlI (pentalenene oxygenase) (Streptomyces avermitilis, UniProt Q82IY3)
Conditions: E. coli co-expressing penA; substrate made in the cell; endogenous E. coli redox proteins

Sequence of PtlI (pentalenene oxygenase) (Q82IY3 whole entry): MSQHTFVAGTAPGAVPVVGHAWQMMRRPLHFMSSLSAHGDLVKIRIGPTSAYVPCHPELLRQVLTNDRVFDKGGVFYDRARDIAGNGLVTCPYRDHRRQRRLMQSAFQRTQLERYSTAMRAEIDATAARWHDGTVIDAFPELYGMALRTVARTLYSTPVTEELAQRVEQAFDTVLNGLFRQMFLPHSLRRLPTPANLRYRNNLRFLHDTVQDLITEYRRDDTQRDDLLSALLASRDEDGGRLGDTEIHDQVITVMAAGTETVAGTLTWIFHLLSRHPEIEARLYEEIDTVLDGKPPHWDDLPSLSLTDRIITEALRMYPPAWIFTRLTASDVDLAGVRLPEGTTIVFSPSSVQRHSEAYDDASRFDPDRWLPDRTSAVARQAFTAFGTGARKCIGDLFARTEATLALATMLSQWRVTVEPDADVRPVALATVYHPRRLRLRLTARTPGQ

## CC1=C[C@@H]2CC(C)(C)C[C@@]23[C@H](C)CC[C@@H]13 [compound 3, pentalenene]
  GC-MS of culture extracts, heterologous expression in E. coli: PtlI can catalyze a three-step oxidation in the cell
